From paper PMC4256282, “Profound Activity of the Anti-cancer Drug Bortezomib against Echinococcus multilocularis Metacestodes Identifies the Proteasome as a Novel Drug Target for Cestodes” (PLoS Neglected Tropical Diseases, 2014) come the findings set out here.

Assay [1] has as its target bovine chymotrypsin (Bos taurus, UniProt P00766). Kind of assay: in-gel fluorescent zymography with SLLVT-AMC, chymotrypsin […] ng per lane, single BTZ concentration. Format: biochemical.
Assay [2] concerns the target T1, proteasome subunit beta 5 of E. multilocularis (EmPSMB5, EmuJ_000590200_1) (Echinococcus multilocularis, UniProt A0A068Y5K9).
T1 sequence (A0A068Y5K9 66-269): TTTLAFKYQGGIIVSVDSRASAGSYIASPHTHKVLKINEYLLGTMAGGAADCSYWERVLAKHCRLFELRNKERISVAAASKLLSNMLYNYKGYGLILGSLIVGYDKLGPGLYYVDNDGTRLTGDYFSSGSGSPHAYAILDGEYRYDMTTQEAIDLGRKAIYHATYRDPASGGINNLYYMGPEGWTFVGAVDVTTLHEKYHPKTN
In words: biochemical.

Turning to `CC(C)C[C@H](NC(=O)[C@H](Cc1ccccc1)NC(=O)c1cnccn1)B(O)O` [BTZ, bortezomib], in assay [1], the “in-gel fluorescent zymography with SLLVT-AMC, chymotrypsin 5 ng per lane, single” value is “BTZ can inhibit also other targets, such as for example chymotrypsin (as shown in the control of Figure 7B)”. Inhibition in assay [2] was half-maximal at 0.76 µM (IC50).
